Literature values in patent publication US9044417B2, “Mineral, nutritional, cosmetic, pharmaceutical, and agricultural compositions and methods for producing the same” (Core Intellectual Properties Holdings, LLC, priority 2003, dated 2015).

Details: aqueous solutions of glycolic acid, pH=3.0; general statement for comparison

sting or burning when applied to freshly shaven skin: will sting or burn
Structure (SMILES): O=C(O)CO [glycolic acid]
